“Also recorded” adds a separate entry of the source. Read-outs that look alike come from different tables or passages of the source.
Experiments:
Type in all cases: cell-based, human
NKG2A+/NKG2C- NK cells = assay: NK cell activation assay with peptide-pulsed K562/HLA-E cells, NKG2A+/NKG2C- NK cells; settings: K562/HLA-E target cells, 300 µM peptide ([…] µM BFAR263-271), E:T 2:1, 6 h; degranulation (CD107a), IFN-γ, TNF, CCL3; flow cytometry
Method: (§1) We hypothesized that our predicted proteome-derived peptides could affect NK cell activation through interactions with CD94/NKG2A and CD94/NKG2C. To investigate, we performed cell-based activation assays on primary NK cells (Fig. 4A). NK cells were co-incubated with peptide-pulsed HLA-E-expressing K562 cells, as described previously. The parental K562 human myelogenous leukemia cell line is a typical target to measure NK cell cytotoxicity and activation, allowing for assessment of both NKG2A-mediated inhibition and NKG2C-mediated activation. […] NKG2A^-/NKG2C^- NK cells served as internal control as these should be unaffected by peptide-HLA-E complexes (Supplemental Fig. 12).
(§2) Fig. 4 NK cell stimulation assays. Assessment of effects of peptides on NK cell activity through incubation of NK cells, peptides, and (A) K562/HLA-E or (B) RMA-S/HLA-E target cells. […] Replicates for individual peptides are from different donors, with solid black lines indicating mean values. […] Representative gating for NKG2A^+/NKG2C^- and NKG2A^-/NKG2C^+ NK cells is shown in Supplemental Fig. 14. Source data are provided as a Source Data file.
(§3) All analyses of human data were carried out in compliance with the relevant ethical regulations. Healthy blood donors gave informed consent at DRK Blutspendedienst Nord-Ost, Dresden, Germany, and buffy coats were obtained as approved by Charité ethics committee (EA4/059/17). PBMCs were isolated from human CMV-seropositive buffy coats by density centrifugation over Ficoll Paque Plus (GE Healthcare) and screened for the presence of NKG2C^+ NK cell expansions by flow cytometry to have sufficient frequencies of single-positive cells for parallel assessment of activation and inhibition via HLA-E[47]. Total NK cells from donors with NKG2C^+ expansions (>10% NKG2A^-/NKG2C^+ NK cells) were enriched with CD56 microbeads (Miltenyi Biotec) and cryopreserved in FBS with 10% v/v DMSO. After thawing, NK cells were washed with complete medium, stained with antibodies and Fixable Viability Dye eFluor 780 (Thermo Fisher) for 15 min at 4 °C in PBS, sorted as viable CD56^+ CD3^− cells, and rested in complete media overnight. […] Brefeldin A and Monensin (BD Biosciences) were added after a 1 h culture period. After an additional 5 h, the stimulation was stopped by centrifugation at 4 °C. Cells underwent surface staining, followed by fixation and intracellular staining using Inside Stain Kit (Miltenyi Biotec). Samples were analyzed by flow cytometry on an LSR Fortessa (BD Biosciences). Inhibition of NKG2A^+ NK cells and activation of NKG2C^+ NK cells was assessed by gating on the respective single-positive populations (Supplemental Fig. 14). Antibodies are listed in Supplemental Table 1: anti-human CD56 PE/Dazzle 594 (1:200 dilution), CD3 APC-eFluor 780 (1:50 dilution), anti-human CD159a (NKG2A) Biotin REAfinity (1:50 dilution), anti-human CD159c (NKG2C) PE REAfinity (1:100 dilution), anti-human CD107a (LAMP-1) Alexa Fluor 488 (1:400 dilution), anti-human IFN-γ PE-Vio 770 REAfinity (1:50 dilution), anti-human TNF-α Brilliant Violet 605 (1:50 dilution), anti-human CCL3 (MIP-1α) REAfinity (1:25 dilution).

HLA-E = HLA-E surface stabilization assay with RMA-S/HLA-E cells; settings: peptide 3-300 µM (Fig. 3: 30 µM) in OptiMEM, 16 h, 37 °C, anti-HLA-E 3D12, flow cytometry, n = 4 replicate experiments
Method: To probe top-predicted proteome-derived peptides (Tables 2 and 3) for HLA-E binding, we assessed their ability to stabilize surface-expressed HLA-E on RMA-S/HLA-E cells, a TAP-deficient mouse cell line engineered to express HLA-E and human β2M (Fig. 3 and Supplemental Fig. 8)[47].
Fig. 3 Peptide stabilization of HLA-E surface expression. Assessment of peptide-HLA-E binding via HLA-E surface stabilization assay with RMA-S/HLA-E cells incubated with 30 μM peptide. HLA-E expression is detected with an anti-HLA-E antibody. Measurements from n = 4 replicate experiments are shown, with solid black lines indicating mean values. […] Source data are provided as a Source Data file.
RMA-S/HLA-E cells were incubated with serial dilutions of peptides (3–300 µM, Genscript) in OptiMEM (ThermoFisher) for 16 h at 37 °C. Cells were washed with PBS, stained for HLA-E (Clone 3D12, Biolegend, 1:200 dilution) for 15 min at room temperature and analyzed by flow cytometry (analysis in FlowJo version 10). Peptide UBAC2_275-279 was ordered as a 5mer peptide (WNRLF) given the similarity with other WN peptides and hypothesis of a truncated peptide binding in the HLA-E groove. […] Measurements from replicate experiments are plotted in Fig. 3 and Supplemental Fig. 8.

NKG2C+ NK cells = assay: NK cell activation assay with peptide-pulsed RMA-S/HLA-E cells; settings: for average percent CD107a+: NKG2C+ NK cells with RMA-S/HLA-E cells, Fig. 4B, stated in author rebuttal
Method: as §2
In contrast to K562 cell lines which are targets for human NK cells, RMA-S cells (a TAP-deficient mouse cell line)[48] are inert to human NK cells and thus will not activate NK cells absent engagement of an activating receptor on the NK cells. […] We performed additional NK cell activation assays with RMA-S/HLA-E cells (Fig. 4B).
as §3

NKG2A-/NKG2C+ NK cells = assay: NK cell activation assay with peptide-pulsed K562/HLA-E cells, NKG2A-/NKG2C+ NK cells; settings: K562/HLA-E target cells, 300 µM peptide ([…] µM BFAR263-271), E:T 2:1, 6 h; degranulation (CD107a), IFN-γ, TNF, CCL3; flow cytometry
Method: as §1, §2, §3

[1] = RMA-S/HLA-E target cells, 300 µM peptide ([…] µM BFAR263-271), E:T 2:1, 6 h, flow cytometry, n = 3 (n = 2 for some) donors

VMPGRTLCF [TACR3_226-234, human peptide from Neuromedin-K receptor]
inhibitory effects on NKG2A+ cells (NKG2A+/NKG2C- NK cells): strong inhibitory effects | stabilization of HLA-E surface expression (HLA-E): HLA-E stabilization matching VMAPRTLFL peptide; also recorded: strong stabilization | NKG2C-mediated NK cell activation (NKG2C+ NK cells): activation similar to the weaker positive control ([…]) or between the two positive controls | activating effects on NKG2C+ cells (NKG2A-/NKG2C+ NK cells): strong activating effects

WNRILPN [length variant of WN peptide]
stabilization of HLA-E surface expression (HLA-E): did not stabilize HLA-E surface

SVPLKTRFL [UL120_71-79, BE/33/2010, divergent UL120 peptide of CMV strain BE/33/2010]
inhibitory effects on NKG2A+ cells (NKG2A+/NKG2C- NK cells): minimal effects | stabilization of HLA-E surface expression (HLA-E): weaker but detectable stabilization | activating effects on NKG2C+ cells (NKG2A-/NKG2C+ NK cells): minimal effects

RMPPRSVLL [INTS1_260-268, human peptide from Integrator complex subunit 1]
inhibitory effects on NKG2A+ cells (NKG2A+/NKG2C- NK cells): strong inhibitory effects | stabilization of HLA-E surface expression (HLA-E): HLA-E stabilization matching VMAPRTLFL peptide; also recorded: strong stabilization | activating effects on NKG2C+ cells (NKG2A-/NKG2C+ NK cells): strong activating effects

TAPARTMFL [PISD55-63, human peptide from Phosphatidylserine decarboxylase proenzyme, mitochondrial]
inhibitory effects on NKG2A+ cells (NKG2A+/NKG2C- NK cells): minimal inhibitory effects | stabilization of HLA-E surface expression (HLA-E): strong binding that is weaker than VMAPRTLFL; also recorded: strong stabilization | NKG2C-mediated NK cell activation (NKG2C+ NK cells): detectable activation, though below both positive control examples | average percent CD107a+ (NKG2C+ NK cells): 7.8% | activating effects on NKG2C+ cells (NKG2A-/NKG2C+ NK cells): clear activating effects

WNRILPNAY [library-derived WN 9mer peptide (P1 Trp, P2 Asn)]
stabilization of HLA-E surface expression (HLA-E): did not stabilize HLA-E surface

WNRLF [UBAC2_275-279, UBAC2 peptide ordered and tested as a 5mer peptide (WNRLF)]
stabilization of HLA-E surface expression (HLA-E): no detectable binding; also recorded: no stabilizing effects

WNRIL [length variant of WN peptide]
stabilization of HLA-E surface expression (HLA-E): did not stabilize HLA-E surface

VMGDRSVLY [EMC1_725-733, human peptide from ER membrane protein complex subunit 1]
stabilization of HLA-E surface expression (HLA-E): no detectable binding; also recorded: no stabilizing effects

WNRILPNA [length variant of WN peptide]
stabilization of HLA-E surface expression (HLA-E): did not stabilize HLA-E surface

VMPPRTLLL [HLA-A3-11, human peptide from HLA class I histocompatibility antigen]
inhibitory effects on NKG2A+ cells (NKG2A+/NKG2C- NK cells): strong inhibitory effects | stabilization of HLA-E surface expression (HLA-E): HLA-E stabilization matching VMAPRTLFL peptide; also recorded: strong stabilization | NKG2C-mediated NK cell activation (NKG2C+ NK cells): activation similar to the weaker positive control ([…]) or between the two positive controls | activating effects on NKG2C+ cells (NKG2A-/NKG2C+ NK cells): strong activating effects

VMAPQSLLL [negative control peptide, reference compound]
NKG2C-mediated NK cell activation (NKG2C+ NK cells): Minimal activation | average percent CD107a+ (NKG2C+ NK cells): 1.1%

TGAARSFFF [UL102_292-300, CMV peptide from DNA helicase/primase complex-associated protein]
stabilization of HLA-E surface expression (HLA-E): no detectable binding; also recorded: no stabilizing effects

ILTDRSLWL [FBXO41_670-678, human peptide from F-box only protein 41]
inhibitory effects on NKG2A+ cells (NKG2A+/NKG2C- NK cells): more moderate inhibitory effects | stabilization of HLA-E surface expression (HLA-E): strong binding that is weaker than VMAPRTLFL; also recorded: strong stabilization | NKG2C-mediated NK cell activation (NKG2C+ NK cells; [1]): activation at the level of the strongest positive control binder (VMAPRTLFL) | activating effects on NKG2C+ cells (NKG2A-/NKG2C+ NK cells): strong activating effects

TLPKRGLFL [AKAP6_388-396, human peptide from A-kinase anchor protein 6]
inhibitory effects on NKG2A+ cells (NKG2A+/NKG2C- NK cells): more moderate inhibitory effects | stabilization of HLA-E surface expression (HLA-E): strong binding that is weaker than VMAPRTLFL; also recorded: strong stabilization | NKG2C-mediated NK cell activation (NKG2C+ NK cells; [1]): activation at the level of the strongest positive control binder (VMAPRTLFL) | activating effects on NKG2C+ cells (NKG2A-/NKG2C+ NK cells): strong activating effects

WNRILP [length variant of WN peptide]
stabilization of HLA-E surface expression (HLA-E): did not stabilize HLA-E surface

NMPARTVLF [MTREX490-498, human peptide from Exosome RNA helicase MTR4]
inhibitory effects on NKG2A+ cells (NKG2A+/NKG2C- NK cells): strong inhibitory effects | stabilization of HLA-E surface expression (HLA-E): strong binding that is weaker than VMAPRTLFL; also recorded: strong stabilization | NKG2C-mediated NK cell activation (NKG2C+ NK cells; [1]): detectable activation, though below both positive control examples | activating effects on NKG2C+ cells (NKG2A-/NKG2C+ NK cells): strong activating effects

FLPNRSLLF [SLC52A3_354-362, human peptide from Solute carrier family 52, riboflavin transporter, member 3]
inhibitory effects on NKG2A+ cells (NKG2A+/NKG2C- NK cells): more moderate inhibitory effects | stabilization of HLA-E surface expression (HLA-E): strong binding that is weaker than VMAPRTLFL; also recorded: strong stabilization | NKG2C-mediated NK cell activation (NKG2C+ NK cells): activation similar to the weaker positive control ([…]) or between the two positive controls | activating effects on NKG2C+ cells (NKG2A-/NKG2C+ NK cells): strong activating effects

TLPERTLYL [ECEL1_269-277, human peptide from Endothelin-converting enzyme-like 1]
inhibitory effects on NKG2A+ cells (NKG2A+/NKG2C- NK cells): strong inhibitory effects | stabilization of HLA-E surface expression (HLA-E): HLA-E stabilization matching VMAPRTLFL peptide; also recorded: strong stabilization | NKG2C-mediated NK cell activation (NKG2C+ NK cells): activation similar to the weaker positive control ([…]) or between the two positive controls | activating effects on NKG2C+ cells (NKG2A-/NKG2C+ NK cells): strong activating effects

VMADKSIFY [OR5D14_88-96, human peptide from Olfactory receptor 5D14]
stabilization of HLA-E surface expression (HLA-E): no detectable binding; also recorded: no stabilizing effects

VMAPRTLIL [canonical signal peptide / CMV UL40-derived HLA-E ligand; positive control, reference compound]
NKG2C-mediated NK cell activation (NKG2C+ NK cells; [1]): weaker positive control
